Laboratory results from patent US20250051344A1, “BIFUNCTIONAL SELECTIVE DEGRADERS OF SMARCA2 AND THERAPEUTIC USES THEREOF” (Nurix Therapeutics, Inc., priority 2023, published 2025).

What was measured:
[1] = target: T1, SMARCA4 (Homo sapiens, UniProt P51532); assay: Cellular degradation assay, SMARCA4 (Table 1); type: cell-based
T1 construct: endogenous in cells

[2] = target: T2, SMARCA2 (Homo sapiens, UniProt P51531); assay: SMARCA2 Cellular Degradation Assay (Western blot analysis on Jess platform); type: cell-based; conditions: for DC50 / Dmax: cellular degradation; for Fold Selectivity SMARCA4/2: ratio DC50 SMARCA4 / DC50 SMARCA2
T2 construct: endogenous in cells
T2 sequence (P51531 whole entry, species assumed): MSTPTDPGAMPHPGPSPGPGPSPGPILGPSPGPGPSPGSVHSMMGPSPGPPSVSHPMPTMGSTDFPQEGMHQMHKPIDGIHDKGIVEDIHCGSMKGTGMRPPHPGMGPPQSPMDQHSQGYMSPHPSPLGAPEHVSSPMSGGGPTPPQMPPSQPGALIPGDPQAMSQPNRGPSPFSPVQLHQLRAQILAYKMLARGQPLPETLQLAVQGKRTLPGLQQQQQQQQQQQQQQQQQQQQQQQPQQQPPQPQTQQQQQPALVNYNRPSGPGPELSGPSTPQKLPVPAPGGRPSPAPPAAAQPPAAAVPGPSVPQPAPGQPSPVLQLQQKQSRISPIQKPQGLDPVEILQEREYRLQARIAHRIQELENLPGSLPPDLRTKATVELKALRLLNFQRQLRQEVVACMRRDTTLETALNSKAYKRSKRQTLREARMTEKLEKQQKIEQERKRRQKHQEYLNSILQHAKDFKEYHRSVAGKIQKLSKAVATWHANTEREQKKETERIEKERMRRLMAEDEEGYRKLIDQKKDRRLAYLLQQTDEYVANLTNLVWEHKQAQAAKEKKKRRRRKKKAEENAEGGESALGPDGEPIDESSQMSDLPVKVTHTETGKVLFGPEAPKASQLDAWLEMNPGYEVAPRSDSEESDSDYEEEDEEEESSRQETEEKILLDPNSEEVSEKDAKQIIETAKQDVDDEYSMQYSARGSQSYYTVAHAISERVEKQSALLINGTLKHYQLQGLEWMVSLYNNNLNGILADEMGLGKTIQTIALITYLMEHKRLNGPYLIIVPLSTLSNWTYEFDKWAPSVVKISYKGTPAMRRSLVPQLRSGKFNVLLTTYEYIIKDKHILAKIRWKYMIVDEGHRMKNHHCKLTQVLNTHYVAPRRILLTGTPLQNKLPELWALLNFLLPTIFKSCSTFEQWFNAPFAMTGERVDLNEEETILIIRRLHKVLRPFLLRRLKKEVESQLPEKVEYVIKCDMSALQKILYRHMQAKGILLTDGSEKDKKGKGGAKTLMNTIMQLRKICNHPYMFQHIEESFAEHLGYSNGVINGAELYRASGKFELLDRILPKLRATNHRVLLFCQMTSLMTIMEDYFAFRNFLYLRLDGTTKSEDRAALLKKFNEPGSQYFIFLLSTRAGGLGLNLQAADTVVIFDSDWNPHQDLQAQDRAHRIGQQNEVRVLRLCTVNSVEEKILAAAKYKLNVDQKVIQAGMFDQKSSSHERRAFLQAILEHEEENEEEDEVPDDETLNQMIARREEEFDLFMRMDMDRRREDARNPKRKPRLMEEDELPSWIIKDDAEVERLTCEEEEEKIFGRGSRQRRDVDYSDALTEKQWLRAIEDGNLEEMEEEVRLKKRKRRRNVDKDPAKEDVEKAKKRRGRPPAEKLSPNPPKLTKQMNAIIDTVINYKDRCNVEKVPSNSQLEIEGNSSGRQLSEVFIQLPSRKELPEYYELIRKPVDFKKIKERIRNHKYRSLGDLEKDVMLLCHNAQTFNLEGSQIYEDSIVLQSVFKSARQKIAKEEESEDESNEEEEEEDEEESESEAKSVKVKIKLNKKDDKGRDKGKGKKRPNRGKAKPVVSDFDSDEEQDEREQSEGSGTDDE
Method: SMARCA2 Cellular Degradation Assay
Western Blot Analysis for SMARCA2 Degradation
Frozen cell pellets were thawed on ice and resuspended in RIPA lysis buffer (Millipore, Cat. No. 20-188) supplemented with 0.2% SDS (Fisher Scientific, Cat. No. 24730020), 200 mM β-glycerophosphate (Alfa Aesar, Cat. No. J62121), 500 mM NaF (Rigaku, Cat. No. 1008046), protease inhibitor (1 tablet per 10 mL, Sigma, Cat. No. 11836170001), 250 U/μL benzonase (Millipore, Cat. No. 71206), 200 mM sodium orthovanadate (FivePhoton, Cat. No. ActVO-4), and 100 mM PMSF (Sigma, Cat. No. 10837091001). 50 μL lysis buffer was used to lyse each pellet containing 5×10E5-1×10E6 live cells extracted from tumors. Lysates were centrifuged for 10 mins at 20,817×g and lysate supernatants were saved for further analysis. Protein levels were determined by the BCA Assay performed according to manufacturer's protocol (EMD Millipore, Cat. No. 71285-3). Samples were evaluated by Western blot analysis on the Jess Platform (ProteinSimple). Lysates were diluted with complete lysis buffer (as described above) and 5 μg of total proteins were loaded onto each capillary. Samples were prepared using the ProteinSimple EZ Standard Pack 1 (Cat. No. PS-ST01EZ-8; containing tubes with powdered (5×) Fluorescent Master Mix, DTT, and biotinylated ladder) and run using the ProteinSimple 25-Capillary Cartridge kit (Cat. No. SM-W004; containing 25-capillary cartridge Wash reagent, and 10× Sample Buffer reagent), the ProteinSimple Anti-Rabbit HRP Detection Module for Jess (Cat. No. DM-001; containing Antibody Diluent, anti-rabbit secondary antibody, Luminol-S, Peroxide, and Streptavidin-HRP), and the ProteinSimple Anti-Mouse NIR Detection Module for Jess (Cat. No. DM-009; containing Antibody Diluent, anti-mouse NIR secondary antibody, and Streptavidin-NIR) as the following describes. The DTT was reconstituted with 40 μL water to make a 400 mM solution, 20 μL of the DTT solution plus 20 μL of 10× Sample Buffer were added to reconstitute the 5× Fluorescent Master Mix, and 20 μL of H2O was used to reconstitute the biotinylated ladder. For each sample, lysate (4 μL) was combined with 5× Fluorescent Master Mix (1 μL) and heated at 95° C. for 5 minutes. Samples were cooled and stored on ice. Primary antibody solution was made using anti-SMARCA2 antibody (Abcam, Cat. No. 240648, 1:10) and anti-beta-Actin antibody (Cell Signaling Technology, Cat. No. 3700S, 1:25) in antibody diluent. The 25-capillary cartridges were prepared per standard ProteinSimple protocol with each sample in a column. For the biotinylated ladder in column 1, the following were added: 5 µL of ladder sample in Row A, 10 μL of antibody diluent in Rows B and C, 10 μL of Streptavidin-NIR in Row D, and 15 μL of a 50:50 Luminol-s/Peroxide solution in Row E. For each test sample (columns 2-25), the following were added per column: 5 μL of sample in Row A, 10 μL of antibody diluent in Row B, 10 μL of primary antibody solution in Row C, 10 μL of secondary antibody in Row D, and 15 μL of a 50:50 Luminol-S/Peroxide solution in Row E. 500 μL wash buffer was added to the wash buffer wells in the cartridge and cartridge was spun at 1000×g for 5 minutes prior to loading into the Jess. Samples were run using the Chemiluminescence and Fluorescence immunoassays in the ProteinSimple Compass for SimpleWestern program (version 5.0.0). After running, SMARCA2, actin, and background curves were identified in the Compass software; note that in the Compass software, the electropherograms are also visualized as bands for comparison with standard Western blot outputs. The electropherogram area reading for each sample curve was normalized to that of the corresponding actin curve per column following background (capillary background) subtraction using the following equation: […]
Following normalization, the percentage of SMARCA2 remaining per sample relative to the vehicle control was calculated as follows: […]

T1 sequence (P51532 whole entry, species assumed): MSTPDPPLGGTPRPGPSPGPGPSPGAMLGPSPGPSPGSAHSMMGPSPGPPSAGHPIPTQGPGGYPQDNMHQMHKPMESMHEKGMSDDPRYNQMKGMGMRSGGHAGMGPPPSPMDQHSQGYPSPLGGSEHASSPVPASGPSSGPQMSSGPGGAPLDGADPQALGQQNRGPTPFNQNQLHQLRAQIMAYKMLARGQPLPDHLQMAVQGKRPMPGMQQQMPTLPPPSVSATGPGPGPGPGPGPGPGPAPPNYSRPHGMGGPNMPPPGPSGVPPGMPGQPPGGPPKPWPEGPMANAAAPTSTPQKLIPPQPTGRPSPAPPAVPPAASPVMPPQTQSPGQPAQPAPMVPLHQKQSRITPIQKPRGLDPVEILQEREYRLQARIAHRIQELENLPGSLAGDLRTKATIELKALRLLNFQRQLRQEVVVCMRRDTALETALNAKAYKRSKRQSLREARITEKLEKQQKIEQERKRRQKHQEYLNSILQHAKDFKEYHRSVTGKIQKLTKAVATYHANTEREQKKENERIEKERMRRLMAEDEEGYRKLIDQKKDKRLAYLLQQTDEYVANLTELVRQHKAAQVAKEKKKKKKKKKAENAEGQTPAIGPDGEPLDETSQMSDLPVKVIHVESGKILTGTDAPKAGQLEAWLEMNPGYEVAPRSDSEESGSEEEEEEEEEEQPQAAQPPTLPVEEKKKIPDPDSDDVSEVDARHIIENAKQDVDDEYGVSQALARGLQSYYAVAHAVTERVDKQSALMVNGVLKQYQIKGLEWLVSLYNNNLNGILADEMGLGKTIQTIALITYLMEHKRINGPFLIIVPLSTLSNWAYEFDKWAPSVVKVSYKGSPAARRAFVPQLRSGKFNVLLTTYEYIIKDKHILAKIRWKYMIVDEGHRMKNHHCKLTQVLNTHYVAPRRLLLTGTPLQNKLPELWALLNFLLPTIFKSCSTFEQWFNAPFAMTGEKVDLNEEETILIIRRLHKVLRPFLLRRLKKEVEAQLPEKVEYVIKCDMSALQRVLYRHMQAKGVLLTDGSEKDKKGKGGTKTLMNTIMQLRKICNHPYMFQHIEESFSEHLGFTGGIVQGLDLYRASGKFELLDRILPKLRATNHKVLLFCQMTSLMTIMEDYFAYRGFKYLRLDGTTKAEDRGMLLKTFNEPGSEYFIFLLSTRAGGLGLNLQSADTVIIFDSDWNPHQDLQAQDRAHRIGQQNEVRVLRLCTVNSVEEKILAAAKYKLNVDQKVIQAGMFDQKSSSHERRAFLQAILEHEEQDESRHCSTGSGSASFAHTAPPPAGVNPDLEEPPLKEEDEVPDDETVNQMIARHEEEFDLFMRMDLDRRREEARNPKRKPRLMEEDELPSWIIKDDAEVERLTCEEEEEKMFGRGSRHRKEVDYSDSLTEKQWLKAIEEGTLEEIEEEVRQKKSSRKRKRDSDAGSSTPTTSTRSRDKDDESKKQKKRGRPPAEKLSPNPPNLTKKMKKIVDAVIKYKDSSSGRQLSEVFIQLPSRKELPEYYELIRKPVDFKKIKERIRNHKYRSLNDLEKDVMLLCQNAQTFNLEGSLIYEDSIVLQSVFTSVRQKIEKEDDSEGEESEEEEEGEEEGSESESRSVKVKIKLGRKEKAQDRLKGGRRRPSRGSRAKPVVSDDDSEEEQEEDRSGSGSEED

| Compound | DC50 [1] | Dmax [1] | DC50 [2] | Dmax [2] | Fold Selectivity SMARCA4/2 [2] |
| --- | --- | --- | --- | --- | --- |
| O=C1CC[C@H](c2ccc(N3CCC(CNC4CCN(C(=O)C5(Oc6ccccc6)CCN(c6cnnc(-c7ccccc7O)c6)CC5)CC4)CC3)cc2)C(=O)N1 [Example 180, (3R)-3-[4-(4-{[(1-{1-[6-(2-hydroxyphenyl)pyridazin-4-yl]-4-phenoxypiperidine-4-carbonyl}piperidin-4-yl)amino]methyl}piperidin-1-yl)phenyl]piperidine-2,6-dione] | – | 46.2% | 13.3 nM | 77.2% | 754 |
| COC1(C(=O)N2CC3(CN(CCC4CCN(c5ccc(C6CCC(=O)NC6=O)cc5)CC4)C3)C2)CCN(c2cnnc(-c3ccccc3O)c2)CC1 (racemic) [Example 82, rac-3-(4-(4-(2-(6-(1-(6-(2-hydroxyphenyl)pyridazin-4-yl)-4-methoxypiperidine-4-carbonyl)-2,6-diazaspiro[3.3]heptan-2-yl)ethyl)piperidin-1-yl)phenyl)piperidine-2,6-dione] | – | 23.8% | 11.3 nM | 71.2% | 883 |
| CN(C(=O)C1(OC2CC2)CCN(c2cnnc(-c3ccccc3O)c2)CC1)C1CCN(CC2CCN(c3ccc([C@H]4CCC(=O)NC4=O)cc3)CC2)CC1 [Example 114, (r)-4-cyclopropoxy-n-(1-((1-(4-(2,6-dioxopiperidin-3-yl)phenyl)piperidin-4-yl)methyl)piperidin-4-yl)-1-(6-(2-hydroxyphenyl)pyridazin-4-yl)-n-methylpiperidine-4-carboxamide] | – | 49.9% | 9.94 nM | 78.6% | 1006 |
| CN(C(=O)C1(c2ccnn2C)CCN(c2cnnc(-c3ccccc3O)c2)CC1)C1CCN(CCC2CCN(c3cccc4c3n(C)c(=O)n4C3CCC(=O)NC3=O)CC2)CC1 (racemic) [Example 62, rac-N-{1-[2-(1-{1-[(3R)-2,6-dioxopiperidin-3-yl]-3-methyl-2-oxo-2,3-dihydro-1H-1,3-benzodiazol-4-yl}piperidin-4-yl)ethyl]piperidin-4-yl}-1-[6-(2-hydroxyphenyl)pyridazin-4-yl]-N-methyl-4-(1-methyl-1H-pyrazol-5-yl)piperidine-4-carboxamide] | 151 nM | 52.3% | 0.25 nM | 93.2% | 602 |
| Cc1ccnn1C1(C(=O)N(C)C2CCN(C3COC4(CCN(c5ccc([C@H]6CCC(=O)NC6=O)cc5)CC4)C3)CC2)CCN(c2cnnc(-c3ccccc3O)c2)CC1 (mixture of isomers) [Example 63, N-{1-[(3RS)-8-{4-[(3R)-2,6-dioxopiperidin-3-yl]phenyl}-1-oxa-8-azaspiro[4.5]decan-3-yl]piperidin-4-yl}-1-[6-(2-hydroxyphenyl)pyridazin-4-yl]-n-methyl-4-(5-methyl-1H-pyrazol-1-yl)piperidine-4-carboxamide] | – | 32.2% | 8.77 nM | 80.5% | 1140 |
| CN(CC1(c2ccccc2)CCN(c2cnnc(-c3ccccc3O)c2)CC1)C1CCN(C(=O)CN2CCC(c3ccc(C4CCC(=O)NC4=O)cc3)CC2)CC1 (racemic) [Example 143, rac-(r)-3-(4-(1-(2-(4-(((1-(6-(2-hydroxyphenyl)pyridazin-4-yl)-4-phenylpiperidin-4-yl)methyl)(methyl)amino)piperidin-1-yl)-2-oxoethyl)piperidin-4-yl)phenyl)piperidine-2,6-dione] | 161 nM | 66.7% | 13.3 nM | 86.5% | 12 |
| Cc1ccn(C2(C(=O)NC3CCN(CC4CCN(c5ccc([C@H]6CCC(=O)NC6=O)cc5)CC4)C4(CCC4)C3)CCN(c3cnnc(-c4ccccc4O)c3)CC2)n1 (stereo partly drawn) [Example 162, N-{5-[(1-{4-[(3R)-2,6-dioxopiperidin-3-yl]phenyl}piperidin-4-yl)methyl]-5-azaspiro[3.5]nonan-8-yl}-1-[6-(2-hydroxyphenyl)pyridazin-4-yl]-4-(3-methyl-1H-pyrazol-1-yl)piperidine-4-carboxamide] | 25.9 nM | 63.9% | 2.62 nM | 84.7% | 10 |
| O=C1CC[C@H](c2ccc(N3CCC(CN4CCCN(C(=O)C5(c6ccccc6)CCN(c6cnnc(-c7ccccc7O)c6)CC5)CC4)CC3)cc2)C(=O)N1 [Example 46, (3R)-3-(4-{4-[(4-{1-[6-(2-hydroxyphenyl)pyridazin-4-yl]-4-phenylpiperidine-4-carbonyl}-1,4-diazepan-1-yl)methyl]piperidin-1-yl}phenyl)piperidine-2,6-dione] | – | 45.1% | 33.7 nM | 63.3% | 297.00 |

The remaining molecules from weak to strong by DC50 [2], led by results:

| DC50 [1] | Dmax [1] | DC50 [2] | Dmax [2] | Fold Selectivity SMARCA4/2 [2] | Compound |
| --- | --- | --- | --- | --- | --- |
| – | 36.9% | 144 nM | 61.7% | 69.67 | O=C1CCC(c2ccc(OC3CCN(CC4CCN(C(=O)C5(c6ccccc6)CCN(c6cnnc(-c7ccccc7O)c6)CC5)CC4)CC3)cc2)C(=O)N1 (racemic) [Example 12, rac-(3R)-3-[4-({1-[(1-{1-[6-(2-hydroxyphenyl)pyridazin-4-yl]-4-phenylpiperidine-4-carbonyl}piperidin-4-yl)methyl]piperidin-4-yl}oxy)phenyl]piperidine-2,6-dione] |
| 1000 nM | 34% | 45.8 nM | 58% | 22 | O=C1CC[C@@H](c2ccc(N3CCN(CC4=NO[C@@H]5CN(C(=O)C6(c7ccccc7)CCN(c7cnnc(-c8ccccc8O)c7)CC6)C[C@H]45)CC3)cc2)C(=O)N1 (racemic) [Example 165, (3RS&)-3-[4-(4-{[(3aRS,6aSR)-5-{1-[6-(2-hydroxyphenyl)pyridazin-4-yl]-4-phenylpiperidine-4-carbonyl}-3aH,4H,5H,6H,6aH-pyrrolo[3,4-d][1,2]oxazol-3-yl]methyl}piperazin-1-yl)phenyl]piperidine-2,6-dione] |
| 47.5 nM | 86.2% | 10.3 nM | 92.2% | 5 | CN(C(=O)C1(c2ccccc2)CCN(c2cnnc(-c3ccccc3O)c2)CC1)C1CCN(CC2CCN(c3ccc([C@H]4CCC(=O)NC4=O)cc3)CC2)C2(CCCCC2)C1 (mixture of isomers) [Example 153, N-[(4RS)-1-[(1-{4-[(3R)-2,6-dioxopiperidin-3-yl]phenyl}piperidin-4-yl)methyl]-1-azaspiro[5.5]undecan-4-yl]-1-[6-(2-hydroxyphenyl)pyridazin-4-yl]-N-methyl-4-phenylpiperidine-4-carboxamide] |
| 39.6 nM | 60% | 4.3 nM | 87.1% | 9 | Cc1ccnn1C1(C(=O)N(C)C2CCN(CC3CCN(c4ccc(C5CCC(=O)NC5=O)cc4)CC3)CC2)CCN(c2cnnc(-c3ccccc3O)c2)CC1 (racemic) [Example 96, rac-N-{1-[(1-{4-[(3R)-2,6-dioxopiperidin-3-yl]phenyl}piperidin-4-yl)methyl]piperidin-4-yl}-1-[6-(2-hydroxyphenyl)pyridazin-4-yl]-N-methyl-4-(5-methyl-1H-pyrazol-1-yl)piperidine-4-carboxamide] |
